How the values were obtained:
[1] = system: tetrodotoxin-sensitive (TTX-S) sodium channels; details: read-out: IC50 value, TTX-S voltage-gated sodium channels; cited from earlier work
[2] = system: L-type Ca^2+ channel; format: cell-based, rat (Sprague-Dawley); details: 10 μM
[3] = system: T-type Ca^2+ channel; format: cell-based, rat (Sprague-Dawley); details: 10 μM

Hainantoxin-IV [HNTX-IV]
IC50 [1]: 34 nM
effect on Ca^2+ currents (L-type) [2]: neither native HNTX-IV (Fig. 8A, 8B) nor rHNTX-IV (Fig. 8C, 8D) could cause obvious changes
effect on Ca^2+ currents (T-type) [3]: neither native HNTX-IV (Fig. 8A, 8B) nor rHNTX-IV (Fig. 8C, 8D) could cause obvious changes

Reference: paper PMC4315428 (PLoS ONE, 2015)
